In patent US9346761B2, “Arginine methyltransferase inhibitors and uses thereof” (Epizyme, Inc., priority 2013, dated 2016) one finds EC30 and IC50 data, which are given here for 1 compound.

In assay [1] the test system is mono-methyl arginine in RKO cells. The experiment in a line: RKO methylation assay, In Cell Western for mono-methyl arginine and DNA content. The conditions noted are these: Homo sapiens; In Cell Western, RKO cells, 72 hours, percent activation of mono-methyl arginine signal; read-out: EC30. Format: cell-based.
The target in a further assay is T1, Full-length human PRMT3 (Homo sapiens, UniProt O60678).
T1 construct: GST-tagged PRMT3; made in house; host or cells: E. coli BL21(DE3) Gold (pGEX-KG)
The experiment in a line: PRMT3 biochemical assay (3H-SAM Flashplate, peptide substrate). The source says:
General Materials. S-adenosylmethionine (SAM), S-adenosylhomocysteine (SAH), bicine, Tween20, dimethylsulfoxide (DMSO), bovine skin gelatin (BSG),), isopropyl-β-D-thiogalactopyranoside (IPTG), and Tris(2-carboxyethyl)phosphine hydrochloride solution (TCEP) were purchased from Sigma-Aldrich at the highest level of purity possible. ^3H-SAM was purchase from American Radiolabeled Chemicals with a specific activity of 80 Ci/mmol. 384-well streptavidin Flashplates were purchased from PerkinElmer.
Substrates. Peptide containing the classic RMT substrate motif was synthesized with an N-terminal linker-affinity tag motif and a C-terminal amide cap by 21st Century Biochemicals. The peptide was purified by high-performance liquid chromatography (HPLC) to greater than 95% purity and confirmed by liquid chromatography mass spectrometry (LC-MS). The sequence was Biot-Ahx-[…]-amide (SEQ ID NO.:11).
Molecular Biology: : Full-length human PRMT3 (NM_005788.3) isoform 1 transcript clone was amplified from an HEK 293 cDNA library and subcloned into pGEX-KG (GE Life Sciences). The resulting construct encodes an N-terminal GST tag and a thrombin cleavage sequence ([…] […] […] […]) (SEQ ID NO.:12) fused directly to Cys 2 of PRMT3.
Protein Expression. E. coli (BL21(DE3) Gold, Stratagene) made competent by the CaCl2 method were transformed with the PRMT3 construct and ampicillin selection. Protein over-expression was accomplished by growing the PRMT3 expressing E. coli clone and inducing expression with 0.3 mM IPTG at 16° C. The culture was grown for 12 hours, harvested by centrifugation, and stored at −80° C. for purification.
Protein Purification. […] GST-tagged PRMT3 eluted with 25-400 mM phosphate in buffer C. Protein was concentrated and buffer was exchanged to 20 mM Tris, 150 mM NaCl, 5% glycerol, 5 mM β-mercaptoethanol, pH7.8 by ultrafiltration. The purity of recovered protein was 70%.
General Procedure for PRMT3 Enzyme Assays on Peptide Substrates. The assays were all performed in a buffer consisting of 20 mM Bicine (pH=7.6), 1 mM TCEP, 0.005% BSG, and 0.002% Tween 20, prepared on the day of use. Compounds in 100% DMSO (1 ul) were spotted into a polypropylene 384-well V-bottom plates (Greiner) using a Platemate Plus outfitted with a 384-channel head (Thermo Scientific). DMSO (1 ul) was added to Columns 11, 12, 23, 24, rows A-H for the maximum signal control and 1 ul of SAH, a known product and inhibitor of PRMT3, was added to columns 11, 12, 23, 24, rows I-P for the minimum signal control. A cocktail (40 ul) containing the PRMT3 enzyme was added by Multidrop Combi (Thermo-Fisher). The compounds were allowed to incubate with PRMT3 for 30 min at room temperature, then a cocktail (10 ul) containing SAM and peptide was added to initiate the reaction (final volume=51 ul). The final concentrations of the components were as follows: PRMT3 was 0.5 nM, ^3H-SAM was 100 nM, non-radiolabeled SAM was 1.8 uM, peptide was 330 nM, SAH in the minimum signal control wells was 1 mM, and the DMSO concentration was 2%. The assays were stopped by the addition of potassium chloride (10 ul) to a final concentration of 100 mM. 50 ul of the reaction in the 384-well polypropylene plate was then transferred to a 384-well Flashplate and the biotinylated peptides were allowed to bind to the streptavidin surface for at least 1 hour before being washed once with 0.1% Tween20 in a Biotek ELx405 plate washer. The plates were then read in a PerkinElmer TopCount plate reader to measure the quantity of ^3H-labeled peptide bound to the Flashplate surface, measured as disintegrations per minute (dpm) or alternatively, referred to as counts per minute (cpm).
Where dpm=disintegrations per minute, cmpd=signal in assay well, and min and max are the respective minimum and maximum signal controls.
Where top and bottom are the normally allowed to float, but may be fixed at 100 or 0 respectively in a 3-parameter fit. […]

T1 sequence (O60678 with tags, fused parts or gaps): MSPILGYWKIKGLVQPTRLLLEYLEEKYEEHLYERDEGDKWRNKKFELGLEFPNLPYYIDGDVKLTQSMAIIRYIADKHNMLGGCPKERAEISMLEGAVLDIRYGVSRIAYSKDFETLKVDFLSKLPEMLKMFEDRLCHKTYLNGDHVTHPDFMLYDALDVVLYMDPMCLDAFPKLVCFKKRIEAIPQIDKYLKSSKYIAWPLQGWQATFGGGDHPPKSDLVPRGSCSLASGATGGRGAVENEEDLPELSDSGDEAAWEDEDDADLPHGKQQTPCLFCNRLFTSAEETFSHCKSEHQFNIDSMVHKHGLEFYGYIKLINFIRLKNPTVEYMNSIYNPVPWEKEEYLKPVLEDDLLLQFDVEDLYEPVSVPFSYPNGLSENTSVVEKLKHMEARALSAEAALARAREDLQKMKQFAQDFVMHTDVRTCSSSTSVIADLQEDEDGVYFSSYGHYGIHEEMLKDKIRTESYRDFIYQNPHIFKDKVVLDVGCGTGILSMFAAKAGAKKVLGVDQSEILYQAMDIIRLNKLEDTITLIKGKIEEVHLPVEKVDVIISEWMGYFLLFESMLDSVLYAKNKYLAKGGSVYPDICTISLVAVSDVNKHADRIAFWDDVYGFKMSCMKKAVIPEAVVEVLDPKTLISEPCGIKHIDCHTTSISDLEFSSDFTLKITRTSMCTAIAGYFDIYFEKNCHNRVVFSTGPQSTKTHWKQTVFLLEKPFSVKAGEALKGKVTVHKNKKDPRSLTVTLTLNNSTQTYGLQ

For orientation: EC30 means the point of the concentration-response curve where the effect stands at 30%. In general, IC50 refers to the midpoint of a concentration-inhibition curve. For the compound `CC(C)Cc1ccc(-c2n[nH]cc2CN(C)CCN)cc1` [Compound 165], in assay [1], the concentration for an effect of 30% (EC30) was below 3 µM. Further, on Full-length human PRMT3, the half-maximal inhibitory concentration (IC50) is 1.01 to 3 µM.
